37 compounds from US9758505B2, “3-(indol-3-yl)-pyridine derivatives, pharmaceutical compositions and methods for use” (ITEOS THERAPEUTICS, priority 2014, dated 2017) can be followed below.

Where a name gives a salt, the structure may show the parent alone.

The target in one assay is T1, human TDO2 (Homo sapiens (Human), UniProt P48775). As to the kind of experiment: Cellular assay for TDO2 activity, hTDO2-overexpressing P815 cells. Format: cell-based. The conditions noted are these: murine mastocytoma P815 cells overexpressing hTDO2, overnight incubation, kynurenine in supernatant. On the procedure: The compounds of Formula I inhibit the activity of human TDO2 in cells.
T1 sequence (P48775 whole entry): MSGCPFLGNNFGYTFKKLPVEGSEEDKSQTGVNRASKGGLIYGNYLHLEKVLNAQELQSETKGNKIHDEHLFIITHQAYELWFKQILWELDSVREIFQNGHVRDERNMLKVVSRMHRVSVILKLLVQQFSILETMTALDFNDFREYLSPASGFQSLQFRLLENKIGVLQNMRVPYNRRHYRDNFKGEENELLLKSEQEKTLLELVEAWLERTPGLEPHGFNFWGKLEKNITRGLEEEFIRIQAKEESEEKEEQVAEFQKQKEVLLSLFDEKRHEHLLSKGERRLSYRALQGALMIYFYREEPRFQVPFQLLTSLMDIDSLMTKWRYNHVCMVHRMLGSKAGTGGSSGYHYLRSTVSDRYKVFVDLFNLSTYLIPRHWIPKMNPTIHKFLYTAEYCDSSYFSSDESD
The assay (adapted from Pilotte L et al., Proc Natl Acad Sci USA, 2012, 109(7), 2497-502) was performed in 96-well flat bottom plates seeded with murine mastocytoma P815 cells overexpressing hTDO2 (prepared as described in Pilotte et al., PNAS, 2012, 109(7), 2497-2502), at a concentration of 5×10^4 cells/well in a final volume of 200 μL. To determine TDO or IDO activity, the cells were incubated overnight at 37° C. at 5% CO2 in IMDM (Invitrogen) supplemented with 2% FBS and 2% penicillin/streptomycin in the presence of the compounds of the present invention, at different concentrations. The cells may be obtained from the American Type Cuylture Collecion [ATCC® TIB-64™ or commercially, e.g., from Sigma-Aldrich or Life Technologies.]
(§1) The plates were then centrifuged 5 min at 1000 rpm, and 100 μL of the supernatant were collected in a conical plate, 30 uL of TCA 30% were added and a further centrifugated at 3000×g for 10 minutes. 100 μL of the supernatant were collected in a flat bottomed plate and 100 μL of 2% (w/v) 4-(dimethylamino)-benzaldehyde in acetic acid and incubated for 5 min at room temperature. Kynurenine concentrations were determined by measuring the absorbance at 480 nm. A standard curve was made with pure kynurenine. The TDO activity was measured as described above using ten serial concentrations of the compounds of the present invention. Data were fitted using the Prism™ software (GraphPad Software, Inc.) using standard software configurations.
`CS(=O)(=O)N1CCC(C(=O)Nc2ccc(-c3c[nH]c4cc(F)ccc34)cn2)CC1` [Example 61, N-(5-(6-fluoro-1H-indol-3-yl)pyridin-2-yl)-1-(methylsulfonyl)piperidine-4-carboxamide]: the IC50 stood at 170 nM.

Compound `C[C@H](N)C(=O)Nc1ccc(-c2c[nH]c3cc(F)ccc23)cn1` [Example 37, (S)-2-amino-N-(5-(6-fluoro-1H-indol-3-yl)pyridin-2-yl)propanamide] gave an IC50 of 450 nM.

The compound `O=C(Nc1ccc(-c2c[nH]c3cc(F)ccc23)cn1)C1CCNCC1` [Example 35, N-(5-(6-fluoro-1H-indol-3-yl)pyridin-2-yl)piperidine-4-carboxamide] registered an IC50 of 250 nM.

In the case of `NCC(=O)NCCNc1ccc(-c2c[nH]c3cc(F)ccc23)cn1` [Example 51, 2-amino-N-(2-((5-(6-fluoro-1H-indol-3-yl)pyridin-2-yl)amino)ethyl)acetamide], half-maximal inhibition (IC50) required 850 nM.

Compound `NCCS(=O)(=O)NC1CCN(c2ccc(-c3c[nH]c4cc(F)ccc34)cn2)CC1` [Example 55, 2-amino-N-(1-(5-(6-fluoro-1H-indol-3-yl)pyridin-2-yl)piperidin-4-yl)ethanesulfonamide] had a half-maximal inhibitory concentration (IC50) of 290 nM.

`NCC(=O)Nc1ccc(-c2c[nH]c3cc(F)ccc23)cn1` [Example 39, 2-amino-N-(5-(6-fluoro-1H-indol-3-yl)pyridin-2-yl)acetamide] came in with an IC50 of 350 nM.

In turn, `NS(=O)(=O)CCNc1ccc(-c2c[nH]c3cc(F)ccc23)cn1` [Example 29, 2-((5-(6-fluoro-1H-indol-3-yl)pyridin-2-yl)amino)ethanesulfonamide] had an IC50 of 240 nM.

`O=C(Nc1ccc(-c2c[nH]c3cc(F)ccc23)cn1)C1CC1` [Example 52, N-(5-(6-fluoro-1H-indol-3-yl)pyridin-2-yl)cyclopropanecarboxamide] returned an IC50 of 120 nM.

The compound `CC(=O)N(C)c1ccc(-c2c[nH]c3cc(F)ccc23)cn1` [Example 8, N-(5-(6-fluoro-1H-indol-3-yl)pyridin-2-yl)-N-methylacetamide] gave an IC50 of 490 nM.

The compound `CC(=O)NCCNc1ccc(-c2c[nH]c3cc(F)ccc23)cn1` [Example 50, N-(2-((5-(6-fluoro-1H-indol-3-yl)pyridin-2-yl)amino)ethyl)acetamide] registered an IC50 of 1000 nM.

A further assay deals with T1, human TDO2. As to the kind of experiment: Cellular assay for TDO2 activity, A172 cells naturally expressing hTDO2. It is filed as cell-based. The conditions noted are these: human glioblastoma A172 cells, overnight incubation, kynurenine in supernatant. The protocol: A172 is a cell line derived from human brain glioblastoma cells.
To determine TDO, the cells were incubated overnight at 37° C. at 5% CO2 in IMDM (Invitrogen) supplemented with 2% FBS and 2% penicillin/streptomycin in the presence of the compounds of the present invention, at different concentrations.
as §1
Regarding `CS(=O)(=O)N1CCC(C(=O)Nc2ccc(-c3c[nH]c4cc(F)ccc34)cn2)CC1` [Example 61, N-(5-(6-fluoro-1H-indol-3-yl)pyridin-2-yl)-1-(methylsulfonyl)piperidine-4-carboxamide], it took 990 nM to reach half-maximal inhibition (IC50).

In turn, `O=C(Nc1ccc(-c2c[nH]c3cc(F)ccc23)cn1)C1CCNCC1` [Example 35, N-(5-(6-fluoro-1H-indol-3-yl)pyridin-2-yl)piperidine-4-carboxamide] yielded an IC50 of 530 nM.

`NCCS(=O)(=O)NC1CCN(c2ccc(-c3c[nH]c4cc(F)ccc34)cn2)CC1` [Example 55, 2-amino-N-(1-(5-(6-fluoro-1H-indol-3-yl)pyridin-2-yl)piperidin-4-yl)ethanesulfonamide] displayed an IC50 of 990 nM.

`CN(CCC(N)=O)S(=O)(=O)c1ccc(-c2c[nH]c3cc(F)ccc23)cn1` [Example 101, 3-(5-(6-fluoro-1H-indol-3-yl)-N-methylpyridine-2-sulfonamido)propanamide] gave an IC50 of 360 nM.

As to `Cn1cc(-c2c[nH]c3cc(F)ccc23)ccc1=O` [Example 68, 5-(6-fluoro-1H-indol-3-yl)-1-methylpyridin-2(1H)-one], half-maximal inhibition (IC50) required 480 nM.

`NC(=O)Nc1ccc(-c2c[nH]c3cc(F)ccc23)cn1` [Example 63, 1-(5-(6-fluoro-1H-indol-3-yl)pyridin-2-yl)urea]: the IC50 was 360 nM.

In turn, `O=c1[nH]c2cc(-c3c[nH]c4cc(F)ccc34)cnc2[nH]1` [Example 73, 6-(6-fluoro-1H-indol-3-yl)-1H-imidazo[4,5-b]pyridin-2(3H)-one] yielded an IC50 of 600 nM.

`O=c1[nH]c2ncc(-c3c[nH]c4cc(F)ccc34)cc2o1` [Example 71, 6-(6-fluoro-1H-indol-3-yl)oxazolo[4,5-b]pyridin-2(3H)-one] gave an IC50 of 1400 nM.

Compound `NS(=O)(=O)c1ccc(-c2c[nH]c3cc(F)ccc23)cn1` [Example 80, 5-(6-fluoro-1H-indol-3-yl)pyridine-2-sulfonamide hydrochloride] had an IC50 of 310 nM.

Compound `NC(=O)CCNS(=O)(=O)c1ccc(-c2c[nH]c3cc(F)ccc23)cn1` [Example 99, 3-(5-(6-fluoro-1H-indol-3-yl)pyridine-2-sulfonamido)propanamide] gave an IC50 of 370 nM.

`O=S(=O)(c1ccc(-c2c[nH]c3cc(F)c(F)cc23)cn1)N1CCNCC1` [Example 94, 5,6-difluoro-3-(6-(piperazin-1-ylsulfonyl)pyridin-3-yl)-1H-indole] came in with an IC50 of 240 nM.

In the case of `O=S(=O)(c1ccc(-c2c[nH]c3ccccc23)cn1)N1CCNCC1` [Example 93, 3-(6-(piperazin-1-ylsulfonyl)pyridin-3-yl)-1H-indole], inhibition was half-maximal at 200 nM (IC50).

`Cc1ccc2c(-c3ccc(S(=O)(=O)N4CCNCC4)nc3)c[nH]c2c1` [Example 98, 6-methyl-3-(6-(piperazin-1-ylsulfonyl)pyridin-3-yl)-1H-indole]: the IC50 is 1400 nM.

`Cc1nc2cc(-c3c[nH]c4cc(F)ccc34)cnc2o1` [Example 75, 6-(6-fluoro-1H-indol-3-yl)-2-methyloxazolo[5,4-b]pyridine]: half-maximal inhibition (IC50) required 500 nM.

`CS(=O)(=O)NCCC(=O)Nc1ccc(-c2c[nH]c3cc(F)ccc23)cn1` [Example 64, N-(5-(6-fluoro-1H-indol-3-yl)pyridin-2-yl)-3-(methylsulfonamido)propanamide] yielded an IC50 of 870 nM.

Take `O=C(O)Cn1c(=O)[nH]c2cc(-c3c[nH]c4cc(F)ccc34)cnc21` [Example 85, 2-(6-(6-fluoro-1H-indol-3-yl)-2-oxo-1H-imidazo[4,5-b]pyridin-3(2H)-yl)acetic acid]: the IC50 came to 2300 nM.

`Nc1nc2ccc(-c3ccc(-c4c[nH]c5cc(F)ccc45)cn3)cc2[nH]1` [Example 67, 6-(5-(6-fluoro-1H-indol-3-yl)pyridin-2-yl)-1H-benzo[d]imidazol-2-amine] displayed an IC50 of 460 nM.

`CNC(=O)Nc1ccc(-c2c[nH]c3cc(F)ccc23)cn1` [Example 66, 1-(5-(6-fluoro-1H-indol-3-yl)pyridin-2-yl)-3-methylurea] came in with an IC50 of 440 nM.

Consider `N[C@@H](Cc1ccccc1)C(=O)Nc1ccc(-c2c[nH]c3cc(F)ccc23)cn1` [Example 36, (S)-2-amino-N-(5-(6-fluoro-1H-indol-3-yl)pyridin-2-yl)-3-phenylpropanamide], for which the IC50 was 1100 nM.

In turn, `O=S(=O)(CCO)NC1CCN(c2ccc(-c3c[nH]c4cc(F)ccc34)cn2)CC1` [Example 62, N-(1-(5-(6-fluoro-1H-indol-3-yl)pyridin-2-yl)piperidin-4-yl)-2-hydroxyethanesulfonamide] displayed an IC50 of 1300 nM.

`Cc1nc2ncc(-c3c[nH]c4cc(F)ccc34)cc2o1` [Example 74, 6-(6-fluoro-1H-indol-3-yl)-2-methyloxazolo[4,5-b]pyridine] registered an IC50 of 400 nM.

On to `CS(=O)(=O)NCCCC(=O)Nc1ccc(-c2c[nH]c3cc(F)ccc23)cn1` [Example 70, N-(5-(6-fluoro-1H-indol-3-yl)pyridin-2-yl)-4-(methylsulfonamido)butanamide], for which the half-inhibitory concentration (IC50) stood at 720 nM.

For `CS(=O)(=O)Nc1ccc(-c2c[nH]c3cc(F)ccc23)cn1` [Example 60, N-(5-(6-fluoro-1H-indol-3-yl)pyridin-2-yl)methanesulfonamide], the IC50 was 700 nM.

`O=C1COCCN1c1ccc(-c2c[nH]c3cc(F)ccc23)cn1` [Example 82, 4-(5-(6-fluoro-1H-indol-3-yl)pyridin-2-yl)morpholin-3-one] had an IC50 of 590 nM.

`O=C(Nc1ccc(-c2c[nH]c3cc(F)ccc23)cn1)[C@@H]1CCCN1` [Example 58, (S)—N-(5-(6-fluoro-1H-indol-3-yl)pyridin-2-yl)pyrrolidine-2-carboxamide] gave an IC50 of 810 nM.

`CS(=O)(=O)NC1CCN(c2ccc(-c3c[nH]c4ccc(Cl)cc34)cn2)CC1` [Example 77, N-(1-(5-(5-chloro-1H-indol-3-yl)pyridin-2-yl)piperidin-4-yl)methanesulfonamide] displayed an IC50 of 2800 nM.

In turn, `CN(CCNS(=O)(=O)c1ccc(-c2c[nH]c3cc(F)ccc23)cn1)S(C)(=O)=O` [Example 89, 5-(6-fluoro-1H-indol-3-yl)-N-(2-(N-methylmethylsulfonamido)ethyl)pyridine-2-sulfonamide] registered an IC50 of 350 nM.

For the compound `CS(=O)(=O)NC1CCN(c2ccc(-c3c[nH]c4cc(Cl)ccc34)cn2)CC1` [Example 72, N-(1-(5-(6-chloro-1H-indol-3-yl)pyridin-2-yl)piperidin-4-yl)methanesulfonamide], the IC50 is 4700 nM.

In turn, `CC(=O)N1CCC(C(=O)Nc2ccc(-c3c[nH]c4cc(F)ccc34)cn2)CC1` [Example 42, 1-acetyl-N-(5-(6-fluoro-1H-indol-3-yl)pyridin-2-yl)piperidine-4-carboxamide] showed an IC50 of 520 nM.

Take `Fc1ccc2c(-c3ccc(NC4CCOCC4)nc3)c[nH]c2c1` [Example 100, 5-(6-fluoro-1H-indol-3-yl)-N-(tetrahydro-2H-pyran-4-yl)pyridin-2-amine]: the IC50 is 620 nM.
